Among the data in PubChem BioAssay (NCI) are TGI and GI50 values, retold here.

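96-well plates; 48 h exposure; 5 concentrations. Endpoints by linear interpolation between flanking doses. Not reached: highest tested concentration assigned. GI50 = concentration required for 50% inhibition of growth. TGI: concentration producing complete growth inhibition.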

Some test systems named below: A549 NSCLC; CAKI-1 renal; RPMI-8226 leukemia; SF-295 CNS; SK-MEL-5 melanoma; SN12C renal; SNB-75 CNS; TK-10 renal; UACC-62 melanoma.
Common to all, as to assay: NCI tumour cell line growth inhibition, 48 h

`CC(C)C(=O)Nc1nc2nc[nH]c2c(=O)[nH]1`: the TGI in the assay with A549 NSCLC, in the assay on CAKI-1 renal, in the assay with RPMI-8226 leukemia, with SF-295 CNS, in the assay on SK-MEL-5 melanoma and in the assay on SN12C renal was over 100 µM each time. Besides, the TGI with SNB-75 CNS, in the assay on TK-10 renal and in the assay on UACC-62 melanoma was over 100 µM each time.
In the case of `O=c1c2c([nH]c3cc4c(cc13)OCO4)-c1ccccc1CC2`, the TGI in the assay with A549 NSCLC, in the assay with RPMI-8226 leukemia, in the assay on SF-295 CNS, in the assay on SK-MEL-5 melanoma, with SN12C renal and in the assay on SNB-75 CNS was over 100 µM in each case. In addition, the TGI in the assay on TK-10 renal and in the assay with UACC-62 melanoma was over 100 µM throughout.
`COc1ccc2c(c1)C(O)(C(F)(F)F)c1cc(C(=O)C(F)(F)F)c3ccccc3c1N2` (stereo unspecified): the TGI is 28.3 µM in the assay on A549 NSCLC; 26.8 µM with CAKI-1 renal; 26.5 µM in the assay with SF-295 CNS; 26.6 µM in the assay on SK-MEL-5 melanoma; 36 µM with SNB-75 CNS; 27.4 µM in the assay on TK-10 renal. For the same compound, in the assay on UACC-62 melanoma, the TGI came to 15.4 µM.
On to `Cc1ccc(-c2c(N)[n+]([O-])c3ccccc3[n+]2[O-])cc1`, for which the TGI with A549 NSCLC is 62.3 µM; with CAKI-1 renal, 9.97 µM; in the assay on RPMI-8226 leukemia, over 100 µM; in the assay on SF-295 CNS it was 45.1 µM; in the assay with SK-MEL-5 melanoma, 24.4 µM; in the assay with SN12C renal, 27.8 µM. The TGI was 26 µM with SNB-75 CNS, 33 µM with TK-10 renal and 20.1 µM in the assay with UACC-62 melanoma.
Regarding `CC1=NCCc2c1[nH]c1cc(O)ccc21`, the TGI in the assay with A549 NSCLC, with CAKI-1 renal, in the assay with RPMI-8226 leukemia, in the assay on SF-295 CNS, in the assay with SK-MEL-5 melanoma and in the assay with SN12C renal was over 100 µM each time. In addition, the TGI in the assay with SNB-75 CNS, in the assay on TK-10 renal and in the assay with UACC-62 melanoma was over 100 µM each time.
For the compound `COc1cc2c(cc1OC)C(N(C)C)C(c1ccccc1)=C2Cl` (stereo unspecified), the TGI in the assay with RPMI-8226 leukemia was 46.3 µM; with SF-295 CNS, 49.7 µM; with SN12C renal it was 43.3 µM; in the assay on SNB-75 CNS, 48.7 µM; in the assay on TK-10 renal, over 100 µM.
Consider `COC(=O)c1csnn1`, for which the TGI in the assay with A549 NSCLC, in the assay with RPMI-8226 leukemia, in the assay on SF-295 CNS, with SK-MEL-5 melanoma, in the assay with SN12C renal and in the assay on TK-10 renal was over 100 µM each time. The TGI in the assay on UACC-62 melanoma was over 100 µM.
With `O=Cc1cn(C(=O)c2ccccc2)c2ccccc12`, the TGI in the assay with A549 NSCLC, in the assay on CAKI-1 renal, in the assay on RPMI-8226 leukemia, in the assay on SF-295 CNS, in the assay on SK-MEL-5 melanoma and in the assay on SNB-75 CNS was over 100 µM throughout. Moreover, the TGI in the assay on TK-10 renal and in the assay on UACC-62 melanoma was over 100 µM each time.
With `CC1CCCCc2nc3c(c(=O)n21)CCCC3` (stereo unspecified), the TGI in the assay on A549 NSCLC, in the assay on CAKI-1 renal, in the assay with SF-295 CNS, in the assay on SN12C renal, in the assay on SNB-75 CNS and in the assay on TK-10 renal was over 100 µM in each case. Further, the TGI in the assay with UACC-62 melanoma is over 100 µM.
For `COc1nc(NC2OCC(OC(C)=O)C(OC(C)=O)C2OC(C)=O)c(N=CC=Nc2c(NC3OCC(OC(C)=O)C(OC(C)=O)C3OC(C)=O)nc(OC)n(C)c2=O)c(=O)n1C` (stereo unspecified), the TGI in the assay with A549 NSCLC, with RPMI-8226 leukemia, with SF-295 CNS, in the assay on SK-MEL-5 melanoma, with SN12C renal and in the assay on SNB-75 CNS was over 100 µM each time. In addition, the TGI with TK-10 renal and with UACC-62 melanoma was over 100 µM each time.
On to `Cc1cccc(NC(=O)CC(=O)N2N=C(N(CCC#N)c3ccc(Cl)cc3)CC2c2ccccc2)c1` (stereo unspecified), for which the TGI in the assay on A549 NSCLC, in the assay with CAKI-1 renal, in the assay with SF-295 CNS, in the assay with SK-MEL-5 melanoma, in the assay with SN12C renal and with SNB-75 CNS was over 100 µM each time. The TGI in the assay with TK-10 renal and in the assay on UACC-62 melanoma was over 100 µM each time.
As to `CCCCCCCCCc1cc(=O)c2ccc(OCc3ccccc3)cc2o1`, the TGI was over 100 µM in the assay on A549 NSCLC; 13.4 µM in the assay on CAKI-1 renal; over 100 µM in the assay on SF-295 CNS; over 100 µM in the assay on SK-MEL-5 melanoma; over 100 µM in the assay with SN12C renal; 72.3 µM with SNB-75 CNS. Besides, the TGI in the assay with TK-10 renal and in the assay with UACC-62 melanoma was over 100 µM in each case.
As to `CNC(=O)OCc1nc(SC2CCCCO2)n(C)c1COC(=O)NC` (stereo unspecified), the TGI in the assay on A549 NSCLC, in the assay on CAKI-1 renal, with RPMI-8226 leukemia, in the assay with SF-295 CNS, with SK-MEL-5 melanoma and with SN12C renal was over 100 µM in each case. Besides, the TGI in the assay on SNB-75 CNS and with UACC-62 melanoma was over 100 µM each time.
Take `COC(=O)CCC1CCc2c(OC)ccc(O)c2C1=O` (stereo unspecified): the TGI in the assay with A549 NSCLC, with RPMI-8226 leukemia, in the assay on SF-295 CNS, in the assay with SK-MEL-5 melanoma, in the assay on SN12C renal and with SNB-75 CNS was over 100 µM each time. Besides, the TGI in the assay on TK-10 renal and with UACC-62 melanoma was over 100 µM in each case.
For `O=C(O)c1ccc([Se][Se]c2ccc(C(=O)O)cc2)cc1`, the TGI in the assay with A549 NSCLC is over 100 µM; with CAKI-1 renal, 36.7 µM; in the assay on RPMI-8226 leukemia it was 91.7 µM; with SF-295 CNS, 54.7 µM; with SN12C renal, over 100 µM; in the assay on SNB-75 CNS, 88.3 µM. Moreover, the results for the TGI in the assay with TK-10 renal and in the assay on UACC-62 melanoma were 54.1 µM and 33.4 µM, respectively.
Consider `O=C([O-])c1ccccc1Nc1ccccn1.O=C([O-])c1ccccc1Nc1ccccn1.[Ni+2]`, for which the GI50 with A549 NSCLC is over 100 µM; with CAKI-1 renal, over 100 µM; in the assay with RPMI-8226 leukemia it was over 100 µM; in the assay on SF-295 CNS, over 100 µM; with SK-MEL-5 melanoma, 73.9 µM; in the assay on SN12C renal it was over 100 µM. Besides, the GI50 in the assay on UACC-62 melanoma was over 100 µM. Further, the TGI with A549 NSCLC, with CAKI-1 renal, in the assay with RPMI-8226 leukemia, with SF-295 CNS, with SK-MEL-5 melanoma and in the assay on SN12C renal was over 100 µM throughout. In the assay on UACC-62 melanoma, this compound had a TGI of over 100 µM.
